The data set can be described thus: physchem. To be noted: for solubility at 30 min: 22.5 °C, thermodynamic from solid. On the procedure: According to the method disclosed in the Pharmacopoeia of Japan, the solubility (μg/ml) of Compound 1 was measured when treated for 30 minutes under the following conditions. • (1) Conditions for measurement of solubility:
Solvent: Diluted McIlvaine buffer

SMILES strings stand for the structures. Some results are limits rather than exact numbers.

`Cl.O=C1[C@@H]2[C@H]3CC[C@H](C3)[C@@H]2C(=O)N1C[C@@H]1CCCC[C@H]1CN1CCN(c2nsc3ccccc23)CC1` [Compound 1, N-[4-[4-(1,2-benzisothiazol-3-yl)-1-piperazinyl]-(2R, 3R)-2,3-tetramethylenebutyl]-(1′R, 2′S, 3′R, 4′S)-2,3-bicyclo[2.2.1]heptanedicarboximide hydrochloride]: the “solubility of Compound 1 (in words)” value is reported as “quite low”. Further, the solubility (usually how much of the substance goes into solution per volume) at 30 min (pH 3, aqueous buffer) is above 20 µg/mL. Further, the solubility at 30 min (pH 4, aqueous buffer) was found to be 8.2 µg/mL. The solubility at 30 min (pH 5, aqueous buffer) was determined as 0.7 µg/mL.

The record behind these values is patent US7727553B2, “Oral preparations with favorable disintegration characteristics” (Dainippon Sumitomo Pharma Co., Ltd., priority 2000, dated 2010).
